Where two headings read alike, the source gives them in different places.
Tests used:
Neurodermitis = test: clinical treatment of neurodermitis; format: in vivo, human; settings: twice a day; occlusions up to 24 hours
Experimental: Two patients with Neurodermitis were treated at the beginning of 1992. Rhamnolipid II was applied on affected regions twice a day; occlusions were applied as well (up to 24 hours).
The treatment and monitoring of patients was, again, a "double blind" experiment. Other affected regions where corticosteroids were applied were used for comparison.

carboxypeptidase A = test: enzyme inhibition, carboxypeptidase A; format: biochemical
Experimental: (§1) Rhamnolipid (II) was tested in vitro against a wide array of enzymes.
(§2) The following enzymes were inhibited at the various rhamnolipid concentrations indicated:
(§3) All enzyme assays were done spectrophotometrically by computer linked automatic microplate reader (Labsystem Multiskan) and Diode Array spectrophotometer (Perkin Elmer).

[1] = test system: A431 human epidermal cells; test: A431 cell DNA synthesis ([3H] thymidine incorporation); format: cell-based; settings: for inhibition of DNA synthesis: absence of serum growth factors; for activity at 1 µg/mL / activity at 10 µg/mL / activity at 100 µg/mL: Homo sapiens, read-out: DNA synthesis, % placebo
Experimental: A431 cells were cultured for 24 h in microtitter platesm, with serum free medium or in the presence of serum with rhamnolipid. Then, [^3 H] thymidine was added and cells were harvested after 48 h; [^3 H] incorporated into DNA was determined.

alkalinephosphatase = test: enzyme inhibition, alkalinephosphatase; format: biochemical
Experimental: as §1, §3

coxsackie B2 virus = test: effect on viruses, coxsackie B2; format: cell-based; settings: concentrations ≤100 ug/ml
Experimental: Tests were performed according to D. A. Vanden Berghe et al., Inst. Pasteur 84,101 (1986). Rhamnolipid (II) was toxic for VERO cells in concentrations ≥200 ug/ml, and cytotoxic on MT4 cells in concentrations >169.40 ug/ml.

Psoriasis = settings: 1% rhamnolipid ointment; Belgium patent No. 1,005,704; cited from earlier work
alpha-glucosidase = test: enzyme inhibition, alpha-glucosidase; format: biochemical
Experimental: as §1, §3

CHO cells = format: cell-based
Experimental: After 16h incubation of CHO cells with rhamnolipid, the number of micronuclei inside certain binuclear cells increased up to 4.

citrate bovine blood = test: hemolytic activity; format: cell-based
Experimental: Hemolytic activity of rhamnolipid (II) could be seen after sedimentation of erythrocytes, when hemoglobin colored the solution. If there was no hemolytic activity, erythrocytes would have precipitated without coloring the solution. For test purposes 1 ml of citrate bovine blood was added to 49 ml of isotonic solution.
Series of test samples were prepared in concentrations ranging from 1.0 mg/ml to 0.01 mg/ml. 1 ml of diluted citric bovine blood was added to 1 ml of diluted test sample. The test tube was gently mixed and left for 0.25 h, 1 h and 24 h, respectively. The lowest dose of rhamnolipid II that caused hemolysis in 15 min. was 0.35 mg/ml; in 1 h was 0.25 mg/ml and in 24 h was 0.125 mg/ml.

mice C57B1/6 = test: range-finding study phase (five doses per day)
[2] = test system: sheep red blood cell (SRBC) hemagglutination; test: immunostimulation (humoral): sheep red blood cell (SRBC) hemagglutination; format: in vivo, mouse (ICR, female)
Experimental: Groups of 6 mice were sensitized by the IV injection of 0.2 ml of a 2% SRBC suspension. On the 9th day following sensitization, blood samples were withdrawn from the orbital sinus and equal parts of complement inactivated serum from the group of 6 mice were pooled to yield a single 0.25 ml sample. Serial 2-fold dilutions were then carried out 10 times in the presence of added complement. […] Serum titers of less than 16 or greater than 128 are considered significant and indicate possible immunosuppressant and immunostimulant activity, respectively.
For immunostimulant activity, test substance or vehicle was administered i.p. to groups of mice for 3 consecutive days, and sensitized to SRBCs 2 hours after the third (last) injection. For immunosuppressant activity, test substance or vehicle was administered i.p. to groups of mice for 3 consecutive days beginning 2 hours after sensitization to SRBCs.

bacterial revertants = test: Ames test; format: cell-based; settings: 10, 100, 200, 500, 1000 ug/plate
Experimental: Tests were performed according to the method described by Ames N. Bruce et al. (Mutation Research, 31 (1975), 347- 364). Test concentrations of rhamnolipid (II) were 10, 100, 200, 500, 1000 ug/plate.
In the range of tested rhamnolipid concentrations, the number of bacterial revertants per Petri dish was in the range of spontaneous revertants which are present without S9 mixture. Therefore, it can be concluded that Rhamnolipid (II) was not mutagenic at the tested concentrations.

[3] = test system: oxazolone-induced delayed type hypersensitivity; test: immunostimulation (cellular): oxazolone-induced delayed type hypersensitivity; format: in vivo, mouse; settings: for Swelling (R -L) / ear thickness, Left Ear (No Oxa.) / ear thickness, Right Ear (24 hrs Oxa.): X ± SEM
Experimental: The test substance was administered i.p to groups of 5 mice, 1 hour before application (sensitization) of oxazolone (0.1 ml of 5% solution) to the pre-shaven abdominal surface. Seven days later, 25 μl of a 2% solution of oxazolone was applied (challenge) to the right ear, with vehicle being applied to the left ear. After 24 hours, each mouse was sacrificed and ear thickness measured with a Dyer Model micrometer gauge. Greater than 30 percent enhancement is considered immunostimulant activity.

beta-galactosidase = test: enzyme inhibition, beta-galactosidase; format: biochemical
Experimental: as §1, §2, §3

Lichen ruber planus = settings: 1% rhamnolipid ointment; Belgium patent No. 1,005,704; cited from earlier work
[4] = five doses per day, intraperitoneal

CCCCCCCC(CC(=O)O)OC(=O)CC(CCCCCCC)O[C@@H]1O[C@@H](C)[C@H](O)[C@@H](O)[C@H]1O[C@@H]1O[C@@H](C)[C@H](O)[C@@H](O)[C@H]1O (stereo partly drawn) [Rhamnolipid (II), (alpha-L-rhamnopyranosyl-(1,2)alpha-L-rhamnopyranosyl)-3-hydroxydecanoyl-3-hydroxydecanoic acid]
improvements versus corticosteroids (Neurodermitis): observed rapidly, faster than in cases when corticosteroids were applied
occurrence of relapses versus local corticosteroids (Neurodermitis): a bit later
concentration at which the enzyme was inhibited (carboxypeptidase A): 1 mg/mL
inhibition of DNA synthesis ([1]; 0.1 mg/ml): completely inhibited
inhibition of DNA synthesis ([1]; 0.1 mg/ml, listed as rhamnolipid II): total inhibition
DNA synthesis [3H] Thy inc. ([1]; 10 (v/v) % FCS, 0.001 mg/ml): 35400 +/- 2786 dpm
DNA synthesis [3H] Thy inc. ([1]; 10 (v/v) % FCS, 0.01 mg/ml): 31273 +/- 2028 dpm
DNA synthesis [3H] Thy inc. ([1]; 10 (v/v) % FCS, 0.1 mg/ml): 37055 +/- 1881 dpm
activity at 1 µg/mL ([1]; A-431, 10 (v/v) % FCS, 0.001 mg/ml): 106 ± 8%
activity at 10 µg/mL ([1]; A-431, 10 (v/v) % FCS, 0.01 mg/ml): 94 ± 6%
activity at 100 µg/mL ([1]; A-431, 10 (v/v) % FCS, 0.1 mg/ml): 111 ± 6%
activity at 1 µg/mL ([1]; A-431, serum free medium, 0.001 mg/ml): 91 ± 32%
activity at 10 µg/mL ([1]; A-431, serum free medium, 0.01 mg/ml): 64 ± 19%
activity at 100 µg/mL ([1]; A-431, serum free medium, 0.1 mg/ml): 2 ± 2%
DNA synthesis [3H] Thy inc. ([1]; serum free medium, 0.001 mg/ml): 6935 +/- 2432 dpm
DNA synthesis [3H] Thy inc. ([1]; serum free medium, 0.01 mg/ml): 4885 +/- 1480 dpm
DNA synthesis [3H] Thy inc. ([1]; serum free medium, 0.1 mg/ml): 134 +/- 129 dpm
effect on enzyme (alkalinephosphatase): no effect
antiviral activity (coxsackie B2 virus): no activity
activity in treatment of Psoriasis (Psoriasis): strong activity
effect on enzyme (alpha-glucosidase): no effect
micronuclei numbers (CHO cells): increased compared to the parallel control specimens
number of micronuclei inside certain binuclear cells (CHO cells): up to 4
lowest dose that caused hemolysis (citrate bovine blood; 15 min): 0.35 mg/mL
lowest dose that caused hemolysis (citrate bovine blood; 1 h): 0.25 mg/mL
lowest dose that caused hemolysis (citrate bovine blood; 24 h): 0.125 mg/mL
amount that led to hemolytic activity (citrate bovine blood; diluted in 2 ml isotonic solution of diluted citric bovine blood, lower did not): 0.25 mg
five dose toxicity (mice C57B1/6; [4]): 5 mg/kg
lower bracket dose (LBD) (mice C57B1/6; [4]): 45 mg/kg
upper bracket dose (UBD) (mice C57B1/6; [4]): 125 mg/kg
difference between rhamnolipid (II) and control (mice C57B1/6; fourth day after application): no statistical differences
SERUM TITER (Reciprocal Serum Dilution) ([2]; IP 0.1 × 3 mg/kg): 64
SERUM TITER (Reciprocal Serum Dilution) ([2]; IP 1 × 3 mg/kg): 64
SERUM TITER (Reciprocal Serum Dilution) ([2]; IP 10 × 3 mg/kg): 128
SERUM TITER (Reciprocal Serum Dilution) ([2]; IP 100 × 3 mg/kg): 8
died on Day 3 ([2]; IP 100 × 3 mg/kg): 1/6
mutagenicity (Ames test) (bacterial revertants): not mutagenic
mutagenicity (Ames test) (bacterial revertants; listed as rhamnolipid II): negative
Swelling Inc. % ([3]; IP 0.1 × 5 mg/kg): -11%
Swelling (R -L) ([3]; IP 0.1 × 5 mg/kg): 15.4 +/- 1.7 × 0.01 mm
ear thickness, Left Ear (No Oxa.) ([3]; IP 0.1 × 5 mg/kg): 19.4 +/- 1.1 × 0.01 mm
ear thickness, Right Ear (24 hrs Oxa.) ([3]; IP 0.1 × 5 mg/kg): 34.8 +/- 1.8 × 0.01 mm
Swelling Inc. % ([3]; IP 1 × 5 mg/kg): 9%
Swelling (R -L) ([3]; IP 1 × 5 mg/kg): 19.0 +/- 2.2 × 0.01 mm
ear thickness, Left Ear (No Oxa.) ([3]; IP 1 × 5 mg/kg): 20.6 +/- 0.9 × 0.01 mm
ear thickness, Right Ear (24 hrs Oxa.) ([3]; IP 1 × 5 mg/kg): 39.6 +/- 2.2 × 0.01 mm
Swelling Inc. % ([3]; IP 10 × 5 mg/kg): 14%
Swelling (R -L) ([3]; IP 10 × 5 mg/kg): 19.8 +/- 1.9 × 0.01 mm
ear thickness, Left Ear (No Oxa.) ([3]; IP 10 × 5 mg/kg): 20.2 +/- 0.4 × 0.01 mm
ear thickness, Right Ear (24 hrs Oxa.) ([3]; IP 10 × 5 mg/kg): 40.0 +/- 1.6 × 0.01 mm
Swelling Inc. % ([3]; IP 100 × 5 mg/kg): -37%
died on Day 2 ([3]; IP 100 × 5 mg/kg): 1/5
Swelling (R -L) ([3]; IP 100 × 5 mg/kg): 11.0 +/- 1.1 × 0.01 mm
ear thickness, Left Ear (No Oxa.) ([3]; IP 100 × 5 mg/kg): 21.3 +/- 1.0 × 0.01 mm
ear thickness, Right Ear (24 hrs Oxa.) ([3]; IP 100 × 5 mg/kg): 32.3 +/- 2.0 × 0.01 mm
concentration at which the enzyme was inhibited (beta-galactosidase): 100 µg/mL
activity in treatment of Lichen rubber planus (Lichen ruber planus): strong activity
